Reference: PMC12259270, “Sensory neuron–expressed FGF13 controls nociceptive signaling in diabetic neuropathy models” (The Journal of Clinical Investigation, 2025)
Residues, ends and D or L forms follow the SMILES beside them. *: point of attachment. Cbz = O=C(OCc1ccccc1)*; NHPh = c1ccc(N*)cc1; OtBu = CC(C)(C)O*

System: Na+ currents in hIPSC-derived sensory neurons (RealDRG)
Test: Whole-cell voltage clamp, hIPSC-derived sensory neurons (RealDRG) with Nav1.8 blocker A-803467
Assay type: cell-based, human
Settings: for Activation / Peak Density / Steady-State inactivation / Tau (τ) / Long-term inactivation, 2nd Pulse / Long-term inactivation, 3rd Pulse / Long-term inactivation, 4th Pulse: RealDRG
Method: Next, we conducted whole-cell patch-clamp electrophysiological recordings in hIPSC-derived sensory neurons under three conditions: unstimulated and treated with 0.07% ethanol (capsaicin vehicle), treated with capsaicin (100 nM, 10 minutes), and treated with capsaicin plus SB-366791 (10 μM), a selective TRPV1 inhibitor. Each group was exposed to either vehicle (0.01% DMSO) or PW164 (50 μM), with all recordings performed in the presence of the Nav1.8 blocker A-803467 (300 nM) ([41]). The experimental groups are color coded in Figure 2A. Capsaicin caused potentiation of INa (Figure 2A) and induced hyperpolarizing shifts in the V1/2 of activation (Figure 2B) and SSI (Figure 2C). […] Next, we investigated whether silencing FGF13 could replicate PW164’s effects and prevent additional activity of the compound. hIPSC-derived sensory neurons were transfected with a previously validated pAAV-shFGF13-GFP construct ([42]) (Supplemental Figure 8). […] Neither PW164 nor FGF13 silencing affected Na+ currents in neurons transfected with pAAV-shCTRL-GFP or pAAV-shFGF13-GFP, whether unstimulated or treated with capsaicin in the presence of ProTx II (Supplemental Figure 9 and Supplemental Table 6). Thus, PW164 selectively modulated FGF13-dependent Na^+ current sensitization via TRPV1, with FGF13 silencing mimicking and validating PW164’s effect. […]
Whole-cell patch clamp electrophysiology
HEK293-Nav1.7 cells, HEK293 stably expressing human Nav1.6 (HEK-Nav1.6), HEK293 stably expressing human Nav1.5 (HEK-Nav1.5), human hIPSC-derived sensory neurons (RealDRGTM from Anatomic Incorporated 1020F1-1M) and donor-derived DRG neurons were plated at low density on glass coverslips and processed for whole-cell patch clamp electrophysiology in voltage-clamp and/or current clamp mode. Whole-cell patch electrophysiological experiments were conducted following previously published studies (26). Current densities were obtained by dividing INa amplitude by membrane capacitance. Current –voltage relationships were generated by plotting current density as a function of the […]. Conductance (G Na) was calculated by the […]
where INa is the current amplitude at voltage Vm, and Erev is the Na+ reversal potential.
Activation curves were derived by plotting normalized GNa as a function of test potential and fitted using […]
Where GNa,Max is the maximum conductance, Va is the membrane potential of half-maximal activation, Em is the membrane voltage and k is the slope factor. For steady -state inactivation, normalized current amplitude (INa/INa,Max) at the test potential was plotted as a function of prepulse potential (Vm) and fitted using the […]
Where Vh is the potential of half-maximal inactivation, E m is the membrane voltage, and k is the slope factor.
Transient INa inactivation decay was estimated with the standard exponential equation. Inactivation time constant (tau, τ) was fitted with the following equation: […]
where I(t) is the amplitude of the current at time t and Iss is the steady-state current during a single voltage-step.
The goodness of fitting was determined by correlation coefficient (R), and the cutoff of R was set at 0.85. To observe effects on long-term inactivation (LTI), a four-step protocol was employed during which cells were subjected to four 0 mV, 20 ms depolarization pulses separated by −90 mV, 40 ms recovery intervals. To control for various cell sizes, the current densities were calculated by dividing INa peak current amplitude/membrane capacitance (Cm). To represent the fraction of channels entering into LTI, the peak INa observed during depolarization cycles 2-4 was normalized to the peak INa observed during depolarization cycle 1 (INa/INa,Cycle 1) and plotted as a function of the depolarization cycle.
The cumulative (frequency-dependent) use-dependency was determined by applying 20 pulses with a depolarization to −10 mV (50 ms duration) and 50 ms recovery intervals with a train of 20 pulses at 10 Hz from a holding potential at -70 mV. […]

[1] = + A-803467, Control (pAAV-GFP) + ZL192
[2] = + A-803467, Sh (pAAV-shFGF13-GFP) + ZL192
[3] = + Nav1.8 blocker A-803467, Naive + ZL192
[4] = + Nav1.8 blocker A-803467, Naïve + ZL192
[5] = + A-803467, AAV-FGF13 + PW164, no capsaicin
[6] = + A-803467, Cap + Control + PW164
[7] = + A-803467, Cap+ AAV-FGF13 PW164
[8] = + A-803467, Cap+ ShFGF13 + PW164
[9] = + A-803467, Cap- Control (pAAV-shCTRL-GFP) + PW164
[10] = + A-803467, Cap- Control + PW164
[11] = + A-803467, Cap- ShFGF13 + PW164
[12] = + Nav1.8 blocker A-803467, Cap+ - PW164
[13] = + Nav1.8 blocker A-803467, Cap+ PW164
[14] = + Nav1.8 blocker A-803467, Cap+ SB-366791 - PW164
[15] = + Nav1.8 blocker A-803467, Cap+ SB-366791 PW164
[16] = + Nav1.8 blocker A-803467, Naïve + PW164
[17] = + Nav1.8 blocker A-803467, Naïve - PW164

CC(=O)N[C@@H](Cc1ccccc1)C(=O)N[C@@H](CC(C)C)C(=O)N1CCC[C@H]1C(=O)N[C@@H](CCCCN)C(=O)Nc1ccccc1 [ZL192] (Ac-FLPK-NHPh)
Activation [1]: −29.64 ± 0.92 mV | Peak Density [1]: −189.79 ± 15.05 pA/pF | Steady-State inactivation [1]: −70.68 ± 1.76 mV | Tau (τ) [1]: 1.09 ± 0.05 ms | Long-term inactivation, 2nd Pulse (+ A-803467, Control + ZL192): −90.69 ± 2.00 % maximal Na+ current | Long-term inactivation, 3rd Pulse (+ A-803467, Control + ZL192): −89.18 ± 2.37 % maximal Na+ current | Long-term inactivation, 4th Pulse (+ A-803467, Control + ZL192): −87.9 ± 2.75 % maximal Na+ current | Activation [2]: −22.84 ± 1.28 mV | Peak Density [2]: −77.34 ± 6.83 pA/pF | Steady-State inactivation [2]: −61.77 ± 2.40 mV | Tau (τ) [2]: 1.23 ± 0.05 ms | Long-term inactivation, 2nd Pulse (+ A-803467, Sh + Zl192): −84.46 ± 3.81 % maximal Na+ current | Long-term inactivation, 3rd Pulse (+ A-803467, Sh + Zl192): −82.09 ± 3.89 % maximal Na+ current | Long-term inactivation, 4th Pulse (+ A-803467, Sh + Zl192): −80.59 ± 4.08 % maximal Na+ current | Activation [3]: −29.92 ± 0.79 mV | Peak Density [3]: −181.06 ± 13.74 pA/pF | Steady-State inactivation [3]: −72.03 ± 0.94 mV | Tau (τ) [3]: 1.31 ± 0.06 ms | Long-term inactivation, 2nd Pulse [4]: −90.95 ± 1.82 % maximal Na+ current | Long-term inactivation, 3rd Pulse [4]: −88.17 ± 2.02 % maximal Na+ current | Long-term inactivation, 4th Pulse [4]: −86.7 ± 1.7 % maximal Na+ current | effect on INa in naive neurons (ZL192 50 μM, no triggering stimuli): potentiated INa

COC(=O)[C@@H](NC(=O)[C@H](CCC(=O)OC(C)(C)C)NC(=O)[C@H](CC(C)C)NC(=O)[C@@H]1CCCN1C(=O)OCc1ccccc1)C(C)C [PW164] (Cbz-PLE(OtBu)V-OMe)
effect on capsaicin-induced Na+ current phenotypes (PW164 50 μM, 30–60 minutes, capsaicin 100 nM, except LTI): reversed capsaicin-induced phenotypes | effect on Na+ currents without sensitization (PW164 50 μM, unstimulated control, or SB-366791, or ProTx II): no significant alterations | Long-term inactivation, 2nd Pulse (+ A-803467, AAV FGF13 + PW64): −68.4 ± 7.1 % maximal Na+ current | Long-term inactivation, 3rd Pulse (+ A-803467, AAV FGF13 + PW64): −61.9 ± 7.5 % maximal Na+ current | Long-term inactivation, 4th Pulse (+ A-803467, AAV FGF13 + PW64): −58.5 ± 8.3 % maximal Na+ current | Activation [5]: −24.3 ± 0.8 mV | Peak Density [5]: −114.3 ± 5.6 pA/pF | Steady-State inactivation [5]: −75.65 ± 1.6 mV | Tau (τ) [5]: 1.65 ± 0.14 ms | Activation [6]: −21.92 ± 0.87 mV | Long-term inactivation, 2nd Pulse [6]: −59.86 ± 2.37 % maximal Na+ current | Long-term inactivation, 3rd Pulse [6]: −49.84 ± 2.93 % maximal Na+ current | Long-term inactivation, 4th Pulse [6]: −46.98 ± 3.3 % maximal Na+ current | Peak Density [6]: −92.79 ± 7.96 pA/pF | Steady-State inactivation [6]: −58.11 ± 1.04 mV | Tau (τ) [6]: 1.42 ± 0.09 ms | Activation [7]: −27.8 ± 0.81 mV | Peak Density [7]: −91.7 ± 10.3 pA/pF | Steady-State inactivation [7]: −73.36 ± 1.4 mV | Tau (τ) [7]: 1.63 ± 0.22 ms | Activation (+ A-803467, Cap+ AAV-GFP PW164): −28.39 ± 0.59 mV | Peak Density (+ A-803467, Cap+ AAV-GFP PW164): −87.62 ± 9.5 pA/pF | Steady-State inactivation (+ A-803467, Cap+ AAV-GFP PW164): −75.15 ± 1.69 mV | Tau (τ) (+ A-803467, Cap+ AAV-GFP PW164): 2.0 ± 0.32 ms | Long-term inactivation, 2nd Pulse (+ A-803467, Cap+ GFP PW164): −53.56 ± 4.9 % maximal Na+ current | Long-term inactivation, 3rd Pulse (+ A-803467, Cap+ GFP PW164): −54.96 ± 3.6 % maximal Na+ current | Long-term inactivation, 4th Pulse (+ A-803467, Cap+ GFP PW164): −54.22 ± 4.3 % maximal Na+ current | Activation [8]: −32.72 ± 1.59 mV | Long-term inactivation, 2nd Pulse [8]: −74.3 ± 3.96 % maximal Na+ current | Long-term inactivation, 3rd Pulse [8]: −68.4 ± 5.4 % maximal Na+ current | Long-term inactivation, 4th Pulse [8]: −67.2 ± 5.2 % maximal Na+ current | Peak Density [8]: −76.49 ± 4.86 pA/pF | Steady-State inactivation [8]: −67.68 ± 1.53 mV | Tau (τ) [8]: 1.38 ± 0.10 ms | Long-term inactivation, 2nd Pulse (+ A-803467, Cap+ hFGF13 PW164): −55.4 ± 2.7 % maximal Na+ current | Long-term inactivation, 3rd Pulse (+ A-803467, Cap+ hFGF13 PW164): −52.0 ± 3.7 % maximal Na+ current | Long-term inactivation, 4th Pulse (+ A-803467, Cap+ hFGF13 PW164): −45.4 ± 3.1 % maximal Na+ current | Activation [9]: −25.74 ± 1.14 mV | Peak Density [9]: −111.31 ± 11.73 pA/pF | Steady-State inactivation [9]: −60.96±1.53 mV | Tau (τ) [9]: 1.18 ± 0.09 ms | Long-term inactivation, 2nd Pulse [10]: −86.72 ± 2.2 % maximal Na+ current | Long-term inactivation, 3rd Pulse [10]: −82.89 ± 3.3 % maximal Na+ current | Long-term inactivation, 4th Pulse [10]: −81.6 ± 3.6 % maximal Na+ current | Activation [11]: −29.77 ± 1.74 mV | Long-term inactivation, 2nd Pulse [11]: −82.82 ± 2.85 % maximal Na+ current | Long-term inactivation, 3rd Pulse [11]: −81.52 ± 3.86 % maximal Na+ current | Long-term inactivation, 4th Pulse [11]: −81.16 ± 4.06 % maximal Na+ current | Peak Density [11]: −96.02 ± 8.94 pA/pF | Steady-State inactivation [11]: −64.99 ± 1.30 mV | Tau (τ) [11]: 0.98 ± 0.09 ms | Activation [12]: −27.51 ± 1.22 mV | Peak Density [12]: −71.9 ± 9.4 pA/pF | Steady-State inactivation [12]: −74.71 ± 1.43 mV | Tau (τ) [12]: 1.39 ± 0.09 ms | Long-term inactivation, 2nd Pulse [13]: −45.59 ± 3.33 % maximal Na+ current | Long-term inactivation, 3rd Pulse [13]: −38.18 ± 2.61 % maximal Na+ current | Long-term inactivation, 4th Pulse [13]: −32.17 ± 4.29 % maximal Na+ current | Activation [14]: −30.7 ± 0.53 mV | Peak Density [14]: −95.2 ± 9.9 pA/pF | Steady-State inactivation [14]: −73.56 ± 1.33 mV | Tau (τ) [14]: 1.52 ± 0.11 ms | Long-term inactivation, 2nd Pulse [15]: −54.94 ± 3.35 % maximal Na+ current | Long-term inactivation, 3rd Pulse [15]: −47.15 ± 2.81 % maximal Na+ current | Long-term inactivation, 4th Pulse [15]: −45.57 ± 4.0 % maximal Na+ current | Long-term inactivation, 2nd Pulse [16]: −74.84 ± 5.46 % maximal Na+ current | Long-term inactivation, 3rd Pulse [16]: −67.02 ± 3.43 % maximal Na+ current | Long-term inactivation, 4th Pulse [16]: −65.63 ± 4.22 % maximal Na+ current | Activation [17]: −30.27 ± 0.75 mV | Peak Density [17]: −84.1 ± 5.9 pA/pF | Steady-State inactivation [17]: −75.11 ± 0.78 mV | Tau (τ) [17]: 0.98 ± 0.09 ms | effect on INa potentiation by FGF13 overexpression (pAAV-FGF13-GFP neurons, PW164 50 μM): fully attenuated
